We go through one compound from US12186348B2, “Glycan strands and oligosaccharides derived from Streptococcus bacteria” (Meharry Medical College, priority 2018, dated 2025).

The test system of one data set is HIV IIIB. Briefly: HIV IIIB replication in THP-1 cells, nine days culture. The class given is cell-based. Particulars: THP-1 cells pre-treated 1 hour, qRT-PCR (FIG. 8C). As to the method: To determine whether G-M inhibits HIV IIIB replication, THP-1 cells were pre-treated 1 hour with G-M or CC5Ap. 100 ng […] content of IIIB was added into the cell culture to infect the cells overnight. Post-infection, cells were washed 2 times and cultured for nine days. The viral supernatant was subjected to qRT-PCR to measure viral release.
In general terms: Quantitative PCR measures a nucleic acid by following its amplification.

The test system of another data set is THP-1 cells. Briefly: Cell number of G-M treated THP-1 samples. The class given is cell-based, human.
For a further data set, the system named is A3G. Briefly: A3G mRNA expression in THP-1 cells by qRT-PCR. Format: cell-based, human. How it is done:
Equal volumes of an S. cristatus CC5A whole cell extract (CC5A1E), fraction A (glycan strands and peptides), fraction B (glycan strands), and CC5Ap were used to treat THP-1 cells for 16 hours. THP-1 cell line is a human monocytic cell line derived from acute monocytic leukemia. The THP-1 cells were obtained from the NIH AIDS Reagent Program. qRT-PCR was used to detect the relative expression of A3G mRNA in THP-1 cells. PBS treated THP-1 cells were used as a control.
The cell wall of S. Mu was isolated from the bacteria and the isolated cell wall was subjected to the cell component isolation shown in FIG. 2A. Oligosaccharide molecules (from the same amount of bacteria) of CC5Ap and S. Mu were used to treat THP-1 cells. The THP-1 cells were obtained from the NIH AIDS Reagent Program. PBS and CC5A/E were used as the controls. A3G expression was measured by qRT-PCR.
(§1) To determine whether CC5Ap induces MX2 expression, THP-1 cells were treated with different doses (units) of CC5Ap for 16 hours. The THP-1 cells were obtained from the NIH AIDS Reagent Program. One unit of CC5Ap is defined as the amount of CC5Ap needed to induce a 3-fold increase in A3G mRNA expression over a period of 16 hours, using 5×10^5 THP-1 cells in 500 μl of cell culture medium. MX2 expression was measured by qRT-PCR. After treatment the cells were either subjected to measuring MX2 expression by Western-blot analyses or infected with HIV-1.
(§2) Synthetic G-M from Toronto Research Chemicals (Cat: A178230) was purchased. The synthetic G-M structure was confirmed by 1H NMR (D2O) and MS. Different doses of G-M were used to treat THP-1 cells. The THP-1 cells were obtained from the NIH AIDS Reagent Program. Specifically, 50 μg, 100 μg, 200 μg and 300 μg/ml G-M (shown in FIGS. 8A-8C as G-M 0.5, 1, 2, 3, respectively) were used to treat THP-1 cells. 1 unit CC5A A/E and CC5Ap were used as the controls. The cells were treated overnight. The mRNA levels of A3G and MX2 were measured by qRT-PCR.

For the next data set, the system named is MX2. Briefly: MX2 expression in THP-1 cells (qRT-PCR, Western-blot). Format: cell-based, human. Particulars: THP-1 cells, 50, 100, 200, 300 μg/ml, overnight (FIG. 8B). As to the method: as §1, §2
For data set [1], the system named is Vpr-BlaM containing HIV NL4-3 virus. Briefly: HIV-1 viral entry assay (Vpr-BlaM, CCF2) in THP-1 cells. The class given is cell-based. Particulars: THP-1 cells pre-treated overnight, compared to untreated control (FIGS. 12, 14). From the text: To determine whether the disclosed molecules have effects on HIV-1 viral entry, a sensitive and specific enzyme-based assay developed by Marielle et al (6) was used. THP-1 cells were pre-treated with AMD3100 (HIV entry inhibitor), CC5A/PBS (cell lysate of Streptococcus Cristatus CC5A), and different amounts of G-M (GlcNAc-MurNAc, which is a disaccharide molecule of glycan strain) overnight. PBS treated THP-1 cells were used as the untreated control. After washing, Vpr-BlaM containing HIV NL4-3 virus was used to infect the cells. After washing again, the cells were subjected to CCF2 staining overnight. The following day, the cells were analyzed by FACSAria III for CCF2 (green/FITC-A) and cleaved CCF2 (DAPI-A) florescence.
THP-1 cells were treated with CC5Ap and with cell lysate from Streptococcus Mutant (S. MuP). The protocol described in Example 10 was followed to test the effects of CC5Ap and S.MuP on HIV viral entry.

As for `CC(=O)N[C@H]1[C@H](O[C@H]2[C@H](O[C@H](C)C(=O)O)[C@@H](NC(C)=O)C(O)O[C@@H]2CO)O[C@H](CO)[C@@H](O)[C@@H]1O` (stereo partly drawn) [G-M, N-Acetyl-D-glucosamine-(1-4)-N-acetylmuramic acid], the “HIV IIIB replication (viral release)” value with HIV IIIB is listed as “inhibits HIV IIIB replication in a dose-dependent manner”. In the data set with THP-1 cells, the “noticeable cell number difference between PBS and treated samples” value was “not observed”. Besides, the “experimentally determined activity of synthetic G-M” value with A3G (1 unit = amount inducing 3-fold A3G mRNA increase in 16 hours, 5×10^5 THP-1 cells in 500 μl) is listed as 0.005 units/μg. Moreover, the “A3G mRNA expression” value with A3G (THP-1 cells, 50, 100, 200, 300 μg/ml, overnight (FIG. 8A)) was “enhanced A3G mRNA expression (FIG. 8A) and MX2 mRNA expression (FIG. 8B) in a dose-dependent manner”. In the data set on A3G (based on G-M concentration of CC5Ap prep (about 100 μg/mL) and activity of synthetic G-M), the “share of the total CC5Ap activity” value is recorded as “about 5%”. Also, the “MX2 mRNA expression” value with MX2 was “enhanced A3G mRNA expression (FIG. 8A) and MX2 mRNA expression (FIG. 8B) in a dose-dependent manner”. The “relative HIV entry” value in data set [1] was “reduced HIV entry dramatically”.
